In US5753516A, “Screening method for ligands of the EBI-1 receptor” (priority 1995, dated 1998):
Entries after “also recorded” stand apart in the source; their conditions may differ.

Legend:
[1] = test system: freshly isolated lymphocytes and EBV transformed cell lines; details: Borboni et al., 1989; cited from earlier work
[2] = test system: human T cells; details: Heagy et al., 1990; cited from earlier work
[3] = test system: lymphocytes and macrophages; details: injection into cerebroventricles of rodents; cited from earlier work
[4] = test system: PBMC; details: cited from earlier work
[5] = test system: PMN; details: Falke and Fischer, 1985; cited from earlier work
[6] = test system: human T cells; test: Migration of human peripheral blood T cells; type: cell-based
[7] = test system: opiate μ-receptor; details: sub-antinociceptive doses; cited from earlier work
[8] = test system: NALM 6 cells; type: binding, human
[9] = biological target: T1, EBI1 (Homo sapiens, UniProt P32248)
T1 sequence (P32248 25-378): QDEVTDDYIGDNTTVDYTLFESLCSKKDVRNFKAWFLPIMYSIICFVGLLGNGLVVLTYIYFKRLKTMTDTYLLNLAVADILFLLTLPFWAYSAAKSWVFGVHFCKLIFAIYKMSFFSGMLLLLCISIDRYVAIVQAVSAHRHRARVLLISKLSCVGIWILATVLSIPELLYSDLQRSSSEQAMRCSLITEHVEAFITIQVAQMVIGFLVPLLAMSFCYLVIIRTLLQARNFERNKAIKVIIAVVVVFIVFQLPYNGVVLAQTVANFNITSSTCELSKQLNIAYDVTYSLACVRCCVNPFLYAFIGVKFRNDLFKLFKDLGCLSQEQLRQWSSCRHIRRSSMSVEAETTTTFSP
Description: (§1) Data are plotted as the concentration of free ^3 H-DPDPE (x-axis) vs specific binding of ^3 H-DPDPE (y-axis).

[10] = test system: Jurkat cells
[11] = biological target: T1, EBI1; test: biochemical
Description: as §1

[12] = test system: NALM 6 cells; test: [Ca^2+ ]i response of NALM 6 / leukemia cells (Indo-1, flow cytometry); type: cell-based, human
Method: FIG. 15, Panels A-C. […] Cells were labeled with Indo-1 as previously described (Rabinovitch et al., 1986), washed twice in serum-free medium and held at 4° C. until flow cytometric analysis. The violet/blue fluorescence ratio was measured using previously described methods (Rabinovitch et al., 1986). Nonstimulated cells (measured in medium, alone) were used to establish a relative violet/blue ratio arbitrarily set at 1.0 as previously described (Rabinovitch). Calibration of [Ca^2+ ]i was carried out as previously described by Rabinovitch et al (1986) using the formula: [formula]
Rmax values were determined by measuring the maximum shift in indo violet/blue fluorescence for cells treated with 4 μM ionomycin. Rmin was measured as the minimum ratio for the violet blue fluorescence of ionomycin treated cells following the addition of 8 mM EGTA. […] The Kd (effective dissociation constant) was set at 250 nM.

[13] = in vitro; details: human, nalm 6 cells
[14] = test system: LAZ 221 cells; test: Flow cytometry of surface molecule expression on LAZ 221 cells; type: cell-based, human; details: LAZ 221, 100 fold excess of naloxone
Method: FIG. 4, Panels A-C. […] Data are presented as mean fluorescence intensities measured for 10,000 cells labeled with anti-CD9 or CD10 mAb. In Panel A, the NALM 6 Cells were incubated with MET-ENK (10^-7 M) for the times indicated. In Panel B, the LAZ 221 cells were incubated with MET-ENK at the doses indicated for 5 minutes at 37° C. […] The anti-CD9 and anti-CD10 mAb used for these experiments were of the IgG2a isotype.
Immunofluorescence Staining and Flow Cytometric Analysis of Cell Surface Molecules: Cells were resuspended at 1×10^6 /ml in PBS and then incubated for periods of 5 to 120 minutes at 37° C. with MET-ENK at doses of 0 to 10^-5 M. Incubations were terminated by transferring samples to an ice bath and then pelleting the cells by centrifugation at 1800 rpm for 5 minutes at 4° C.
Immunofluorescence staining was carried out in 4-ml tubes maintained in an ice water bath. […] Cells were subsequently fixed within a 2% solution of formalin and maintained in the dark at 10° C. until analyzed.
Flow cytometric analysis was performed using a FACS SCAN Flow Cytometer (Becton Dickinson, Mountain View, Calif.) equipped with a HP9000 Series computer and the Lysys System software analysis package. Data were collected as histograms depicting the fluorescence intensity for 5,000 to 10,000 cells per sample.
The non-binding IgG1 MOPC myeloma protein, anti-macrophage/monocyte specific CD14 (MO2; IgG2) and anti-T cell specific CD3 (OKT3; IgG2a) mAb were employed as nonreactive controls for measuring the autofluorescence of B cells.

[15] = test system: NALM 6 cells; test: Light scatter analysis of morphological response of NALM 6 cells; type: cell-based, human
Method: FIG. 2, Panels A and B. Methionine-enkephalin induces a morphological change in NALM 6 cells. […] Analysis of forward and right angle light scatter was performed using a Becton Dickinson FACS SCAN flow cytometer as described (Sklar et al., 1984). Histograms of light scatter were obtained by analyzing 10,000 cells per sample. Data are expressed as mean channel number (y-axis) vs concentration of MET-ENK (x-axis).
Forward and right angle light scatter analysis of the morphological response to MET-ENK: The effect of MET-ENK on cell morphology were measured using flow cytometric analysis of forward and right angle light scatter as previously described (Sklar et al., 1984). For these studies 10^6 cells were resuspended in one-ml of PBS, activated by the addition of MET-ENK or maintained in the PBS buffer alone, and then, incubated for 5 minutes at 37° C. […] Samples were analyzed on a Becton Dickinson FACS SCAN flow cytometer with excitation at 488 nm (Sklar et al., 1984). Histograms of light scattering were obtained by analyzing 10,000 cells for each sample. Data analysis was performed using the Lysys System software package.

[16] = biological target: T1, EBI1; details: COS (EBI 1); MET-ENK 0.01 nM, naloxone 10 μM, forskolin 0.1 μM; controls 61.2 and 63.5
[17] = test system: NALM 6 cells; test: Migration (chemotaxis) of NALM 6 pre-B ALL cells; type: cell-based, human; details: for % Response (with/without naloxone): 90 min, 10 µM
[18] = test system: NALM 6 cells; test: MET-ENK-FITC binding to NALM 6 cells (flow cytometry, Scatchard); design: species or system human; details: 5 μM naloxone
[19] = test system: COS (Vector Control); test: cAMP accumulation in COS cells (vector control); type: cell-based, monkey; details: COS (Vector Control); MET-ENK 0.01 nM, naloxone 10 μM, forskolin 0.1 μM; controls 40.2 and 38.8

## β-END: polypeptide β-endorphin
[1]
  sensitivity of binding to naloxone: insensitive to naloxone and not displaced by synthetic peptides containing MET-ENK residues
[2]
  human T cell migration: potent stimulants for the migration of isolated human T cells
[3]
  lymphocyte and macrophage migration into ventricles: elicited lymphocyte and macrophage migration into the ventricles
[4]; PBMC
  blastogenic responses to T and B cell lectins: augment the blastogenic responses of PBMC to both T and B cell lectins
[4]; lectin stimulated PBMC
  IFN-γ production: enhance IFN-γ production
[5]
  onset of PMN morphological response: ≤ 2 minutes
[6]
  human lymphocyte / T cell migration: stimulate human lymphocyte migration

## CC1(C)SSC(C)(C)[C@@H](NC(=O)[C@@H](N)Cc2ccc(O)cc2)C(=O)NCC(=O)N[C@@H](Cc2ccccc2)C(=O)N[C@H]1C(=O)O [DPDPE, [D-Pen^2,5]enkephalin]
[7]
  effect on morphine antinociception: enhance the antinociception mediated via the opiate μ-receptor agonist morphine
[8]
  specific binding, % of total: 50-80%
[9]
  binding to membranes of COS cells expressing lymphocyte R7G: specific, high affinity binding
[10]
  specific binding, % of total: 50-60%
[11]
  Kd: 0.2 nM

## C=CCN1CC[C@]23c4c5ccc(O)c4O[C@H]2C(=O)CC[C@@]3(O)[C@H]1C5 [Naloxone]
[10]; ^3 H-DADLE, ^3 H-DPDPE, ^3 H-U69,593
  reversal of agonist binding by naloxone: a portion of the binding of these highly selective opiate receptor agonists was reversed by naloxone
[12]
  [Ca^2+ ]i response: inhibited by naloxone
[13]
  viability at 10 µM: ≥ 96%
[14]
  effect on MET-ENK induction of CD9: totally blocked
[15]; 5 minutes at 37° C.
  morphological response (light scatter) of NALM 6 cells: inhibited by preincubation with naloxone
[15]; vs PBS alone
  baseline light scatter, naloxone alone: shifted the baseline measurement below that for the control
[16]
  cAMP: 76.4 fmoles/cell × 10^3
[17]; MET-ENK 1 nM, naloxone 10^-5 M
  % Response (with/without naloxone): 43%
[17]; MET-ENK 100 nM, naloxone 10^-5 M
  % Response (with/without naloxone): 42%
[17]; migration to MET-ENK or spontaneous locomotion
  effect of naloxone on NALM 6 migration: inhibited the migration of NALM 6 cells to MET-ENK; also recorded: Spontaneous locomotion resulting from the random movement of unchallenged cells was equivalent for naloxone treated and nontreated cells
[17]; naloxone 10^-5 M, MET-ENK 100 nM
  cell counts, migration to MET-ENK with naloxone: 1476 cell counts
[17]; naloxone 10^-5 M, no MET-ENK, without naloxone 1647
  cell counts, spontaneous locomotion with naloxone: 1350 cell counts
[17]; spontaneous locomotion, naloxone 10^-5 M
  % Response (with/without naloxone): 82%
[18]
  effect of naloxone on MET-ENK(-FITC) binding: in the presence of naloxone this association is decreased; also recorded: blocked
[19]
  cAMP: 31.4 fmoles/cell × 10^3
[6]
  human lymphocyte / T cell migration: blocked the T cell chemotaxis to MET-ENK
